Test results: patent US12186354B2, “Lespedeza capitata extract for use in the field of hair care” (priority 2018, dated 2025)

Experiments:
[1] = system: 5α-reductase; assay: 5α-reductase activity (DHT/testosterone ratio) in dermal papilla cells, C14 testosterone metabolism; assay type: cell-based, human; settings: 10 μM, incubation 24 h+24 h
[2] = system: JAK1/2-STAT3 pathway; assay: IL-6-induced STAT3 phosphorylation in follicular keratinocytes of the outer root sheath (ORS); assay type: cell-based, human; settings: 5 μM, 1 h pre-treatment, IL-6 100 ng/ml 15 minutes

CC(C)(C)NC(=O)[C@H]1CC[C@H]2[C@@H]3CC[C@H]4NC(=O)C=C[C@]4(C)[C@H]3CC[C@]12C [Finasteride, finasteride]
% inh (DHT/testosterone ratio, relative to the control condition) [1]: 94.2% | Mean DHT/testosterone ratio (5α-reductase activity) [1]: 0.02

N#CC[C@H](C1CCCC1)n1cc(-c2ncnc3[nH]ccc23)cn1 [Ruxolitinib, ruxolitinib]
% of STAT phosphorylated, Mean [2]: 102%
